Test results reported in patent US5726177A, “Indole-derived arylpiperazines as ligands for 5HT1 -like, 5HT1B and 5HT1D receptors” (Pierre Fabre Medicament, priority 1993, dated 1998).
pEC50, pIC50, pKi: −log10 of the molar value. Structures can show the parent of a compound that is named as a salt. Where two headings read alike, the source gives them in different places.

What was measured:
human 5HT1Db receptor [1] = target: T1, human 5HT1Db receptor (Homo sapiens, UniProt P28222); test: cell-based; settings: human 5HT1Db; CHO-K1 cells; read-out: EC50 (Inhibition of the 5HT1Db cyclase stimulated by forskolin)
T1 sequence (P28222 whole entry): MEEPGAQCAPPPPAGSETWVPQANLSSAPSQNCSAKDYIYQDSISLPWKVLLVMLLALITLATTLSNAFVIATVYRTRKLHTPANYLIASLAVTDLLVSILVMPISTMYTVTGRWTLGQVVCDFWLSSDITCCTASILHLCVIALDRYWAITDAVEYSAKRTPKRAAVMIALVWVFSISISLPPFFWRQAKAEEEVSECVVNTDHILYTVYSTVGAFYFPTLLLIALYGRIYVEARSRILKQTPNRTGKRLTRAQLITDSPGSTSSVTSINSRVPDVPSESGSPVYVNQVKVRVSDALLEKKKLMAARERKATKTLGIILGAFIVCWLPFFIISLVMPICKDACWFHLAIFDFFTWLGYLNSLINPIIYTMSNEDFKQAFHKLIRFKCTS
Experimental: (§1) Human 5HT1Da and 5HT1Db receptors were cloned according to the sequences published by M. Hamblin and M. Metcalf, Mol. Pharmacol., 40, 143 (1991) and Weinshenk et al., Proc. Natl. Acad. Sci., 89, 3630 (1992).
(§2) The transient transfection and the stable transfection of the genes of these receptors was carried out in Cos-7 and CHO-K1 cell lines by using an electroporator.
The inhibition of the formation of cyclic AMP (stimulated by forskolin) mediated by the human 5HT1Db receptor was studied in CHO-K1 cells transfected by the receptor according to the technique described previously for the 5HT1B receptor (P. Pauwels and C. Palmier, Neuropharmacology, 33, 67, 1994).

human 5HT1Db receptor [2] = target: T1, human 5HT1Db receptor; test: Binding to cloned human 5HT1Db receptor; settings: human cloned receptor; [3H] ligand 2 nM; read-out: Ki 5HT1Db
Experimental: as §1, §2
(§3) The binding of the derivatives of the present invention with human 5HT1Da, 5HT1Db and 5HT1A receptors was studied according to the method described by P. Pauwels and C. Palmier (Neuropharmacology, 33, 67, 1994).
(§4) The incubation media for these binding measurements comprise 0.4 ml of cell membrane preparation, 0.05 ml of a tritiated ligand [[3H]-SCT (final concentration: 2 nM) for the 5HT1Da and 5HT1Db receptors and [3H]-80H-DPAT (final concentration: 1 nM) for the 5HT1A receptor] and 0.05 ml of the molecule to be tested (final concentrations from 0.1 nM to 1000 nM) or 10 μM (final concentration) of serotonin (5HT1Da and 5HT1Db) or 1 μM (final concentration) of spiroxatrin (5HT1A ).

5-HT1B receptor = target: T2, 5-HT1B receptor (Didelphis virginiana, UniProt P35404); test: Agonist activity: inhibition of forskolin-stimulated cAMP formation mediated by a 5-HT1B receptor in OK kidney epithelial cell line; assay type: cell-based
T2 construct: mediated by a 5-HT1B receptor, in an OK kidney epithelial cell line; endogenous in cells; host or cells: OK kidney epithelial cell line
T2 sequence (P35404 whole entry): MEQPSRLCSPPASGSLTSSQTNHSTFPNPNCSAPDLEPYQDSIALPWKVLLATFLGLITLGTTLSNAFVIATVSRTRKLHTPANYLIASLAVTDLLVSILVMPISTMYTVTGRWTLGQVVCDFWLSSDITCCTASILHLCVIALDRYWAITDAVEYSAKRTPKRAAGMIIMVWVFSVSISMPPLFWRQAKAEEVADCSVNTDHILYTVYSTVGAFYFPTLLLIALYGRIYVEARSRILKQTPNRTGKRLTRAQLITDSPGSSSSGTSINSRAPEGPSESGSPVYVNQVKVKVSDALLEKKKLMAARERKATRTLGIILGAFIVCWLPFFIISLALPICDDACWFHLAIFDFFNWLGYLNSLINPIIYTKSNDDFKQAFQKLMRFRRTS
Experimental: STUDY OF THE AGONIST ACTIVITY WITH RESPECT TO THE 5-HT1B RECEPTORS
The measurements were carried out with respect to the inhibition of the formation of cAMP stimulated by forskolin, mediated by a 5-HT1B receptor, in an OK kidney epithelial cell line as described elsewhere (P. J. Pauwels and C. Palmier, Neuropharmacology, awaiting publication).

human 5HT1Da receptor = human 5HT1Da receptor (Homo sapiens, UniProt P28221); test: Binding to cloned human 5HT1Da receptor; settings: human cloned receptor; [3H] ligand 2 nM; read-out: Ki 5HT1Da
Chain of human 5HT1Da receptor (P28221 whole entry): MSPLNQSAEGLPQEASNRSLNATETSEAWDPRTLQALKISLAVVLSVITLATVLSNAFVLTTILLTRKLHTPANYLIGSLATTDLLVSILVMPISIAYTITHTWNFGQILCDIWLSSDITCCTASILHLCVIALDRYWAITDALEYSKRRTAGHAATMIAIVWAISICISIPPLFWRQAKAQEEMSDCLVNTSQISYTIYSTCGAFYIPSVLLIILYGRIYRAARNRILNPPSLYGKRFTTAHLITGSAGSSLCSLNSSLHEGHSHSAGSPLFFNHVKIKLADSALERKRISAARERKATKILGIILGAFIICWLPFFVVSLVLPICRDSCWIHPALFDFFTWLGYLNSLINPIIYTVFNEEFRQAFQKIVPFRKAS
Experimental: as §1, §2, §3, §4

5-HT1D receptors = test: Affinity for 5-HT1D receptors (3H-5HT binding, sheep caudate membranes); settings: for Ratio 1A/1D (ratio of the IC50 values for the 5HT1A and 5HT1D receptors): selectivity 5-HT1D over 5-HT1A; for pIC50: sheep caudate nuclei membranes, 3H-5HT, 25° C., 30 min
Experimental: STUDY OF THE AFFINITY FOR 5-HT1D RECEPTORS
This study is carried out according to the technique described by Pauwells et al. (Biochem. Pharmacol, 46, 535-538, 1993).
Preparation of the membranes
Sheep brains are removed in the local abattoir and transported in ice. The caudate nuclei are removed, weighed and homogenized with a Polytron for 20 sec (speed 6-7) in 20 volumes of Tris-HCl 50 mM, pH 7.7. The homogenate is centrifuged for 10 min at 48,000 g with an L5 50E centrifuge (Beckman).
The pellet, taken up in 20 volumes of Tris-HCl 50 mm, pH 7.7, is placed in a water bath at 37° C. for 10 min and then recentrifuged for 10 min at 48,000 g. The pellet then obtained is immediately frozen in fractions containing 0.5g of tissue.
The pellet is defrosted and homogenized with a Dounce in 80 volumes of Tris-HCl 50 mM, pH 7.7, containing 4 mM CaCl2, 10 μM of pargyline and 0.1% of ascorbic acid.
Affinity is produced at 25° C. by incubating for 30 min:
0.1 ml of buffer or 10 μM, as final concentration, of sumatriptan, in order to obtain the non-specific binding
0.1 ml of 3H-5HT (15 to 30 Ci:mM, New England Nuclear France).
The incubation is brought to an end by rapid filtration through GF/B filters and rinsing with 3 times 3 [illegible] ice-cold buffer, using a harvester manufactured by Brandel which makes it possible [illegible] to filter [illegible]samples. The filters are introduced into vials containing [illegible]ml of [illegible] [illegible] scintillant (Packard) and the radioactivity measured with a Tri-carb 4640 counter (Packard). The IC50 (concentration which inhibits the specific affinity by 50%) is determined graphically.

5-HT1A = target: T3, 5-HT1A (Rattus norvegicus, UniProt P19327); test: Affinity for 5-HT1A receptors (method of Peroutka); assay type: binding
T3 construct: from tissue; host or cells: rat frontal cortex (from the title of the cited method)
T3 sequence (P19327 1-422): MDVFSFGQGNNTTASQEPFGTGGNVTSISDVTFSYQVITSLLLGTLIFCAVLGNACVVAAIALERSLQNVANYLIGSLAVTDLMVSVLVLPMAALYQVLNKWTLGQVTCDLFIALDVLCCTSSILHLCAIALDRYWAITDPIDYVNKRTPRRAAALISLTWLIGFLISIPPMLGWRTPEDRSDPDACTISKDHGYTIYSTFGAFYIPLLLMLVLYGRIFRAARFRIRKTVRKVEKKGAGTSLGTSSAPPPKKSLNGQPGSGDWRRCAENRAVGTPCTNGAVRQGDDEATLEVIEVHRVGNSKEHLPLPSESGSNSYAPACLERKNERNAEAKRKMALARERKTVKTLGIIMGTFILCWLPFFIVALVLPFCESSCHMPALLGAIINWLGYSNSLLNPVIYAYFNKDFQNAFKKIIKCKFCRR
Experimental: The affinities of the various products which form part of this invention for 5HT1A and 5HT1B receptors were measured according to the techniques described in:
Peroutka S. J. Pharmacological differentiation and characterization of 5HT1A, 5HT1B and 5HT1C binding sites in rat frontal cortex. J. Neurochem., 45, 529-540, 1986.

[3] = rat frontal cortex (Peroutka method), read-out: IC50 5-HT1A mean

Ratio 1A/1D (ratio of the IC50 values for the 5HT1A and 5HT1D receptors) (5-HT1D receptors)	pIC50 (5-HT1D receptors)	pIC50 (5-HT1A; [3])	Compound	further results
			NCCc1c[nH]c2ccc(OCC(=O)N3CCN(c4ccc([N+](=O)[O-])cc4)CC3)cc12 [Example 1, 2-[3-(2-Aminoethyl)-1H-indol-5-yloxy]-1-[4-(4-nitrophenyl)piperazin-1-yl]ethanone hydrochloride]	pEC50 (human 5HT1Db receptor [1]): 8.92; pKi (human 5HT1Db receptor [2]): 9.00; pEC50 (5-HT1B receptor): 8.92 to 9.52; pKi (human 5HT1Da receptor): 9.30
			NCCc1c[nH]c2ccc(OCC(=O)N3CCN(c4ccc(N)cc4)CC3)cc12 [Example 2, 2-[3-(2-Aminoethyl)-1H-indol-5-yloxy]-1-[4-(4-aminophenyl)piperazin-1-yl]ethanone hydrochloride]	pEC50 (5-HT1B receptor): 8.92 to 9.52
			CC(=O)Nc1ccc(N2CCN(C(=O)COc3ccc4[nH]cc(CCN)c4c3)CC2)cc1 [Example 3, N-[4-(4-{2-[3-(2-Aminoethyl)-1H-indol-5-yloxy]acetyl}piperazin-1-yl)phenyl]acetamide hydrochloride]	pEC50 (5-HT1B receptor): 8.92 to 9.52
75	9.00	7.12	NCCc1c[nH]c2ccc(OCC(=O)N3CCN(c4ccc(NC(=O)c5ccccc5)cc4)CC3)cc12 [Example 4, N-[4-(4-{2-[3-(2-Aminoethyl)-1H-indol-5-yloxy]acetyl}piperazin-1-yl)phenyl]benzamide hydrochloride]	
			CS(=O)(=O)Nc1ccc(N2CCN(C(=O)COc3ccc4[nH]cc(CCN)c4c3)CC2)cc1 [Example 5, N-[4-(4-{2-[3-(2-Aminoethyl)-1H-indol-5-yloxy]acetyl}piperazin-1-yl)phenyl]methanesulfonamide hydrochloride]	pEC50 (human 5HT1Db receptor [1]): 8.19; pKi (human 5HT1Db receptor [2]): 8.49; pKi (human 5HT1Da receptor): 9.15
18	8.37	7.10	CS(=O)(=O)N(c1ccc(N2CCN(C(=O)COc3ccc4[nH]cc(CCN)c4c3)CC2)cc1)S(C)(=O)=O [Example 6, N-[4-(4-{2-[3-(2-Aminoethyl)-1H-indol-5-yloxy]acetyl}piperazin-1-yl)phenyl](methanesulfonyl)methanesulfonamide hydrochloride]	
28	8.80	7.36	CCS(=O)(=O)Nc1ccc(N2CCN(C(=O)COc3ccc4[nH]cc(CCN)c4c3)CC2)cc1 [Example 7, N-[4-(4-{2-[3-(2-Aminoethyl)-1H-indol-5-yloxy]acetyl}piperazin-1-yl)phenyl]ethanesulfonamide hydrochloride]	
22	8.92	7.59	NCCc1c[nH]c2ccc(OCC(=O)N3CCN(c4ccc(NS(=O)(=O)c5cccs5)cc4)CC3)cc12 [Example 8, Thiophene-2-{N-[4-(4-{2-[3-(2-aminoethyl)-1H-indol-5-yloxy]acetyl}piperazin-1-yl)phenyl]sulfonamide hydrochloride]	
		7.42	NCCc1c[nH]c2ccc(OCC(=O)N3CCN(c4ccc(N(S(=O)(=O)c5cccs5)S(=O)(=O)c5cccs5)cc4)CC3)cc12 [Example 9, N-[4-(4-{2-[3-(2-Aminoethyl)-1H-indol-5-yl-oxy]acetyl}piperazin-1-yl)phenyl](thiophene-2-sulfonyl)-thiophene-2-sulfonamide hydrochloride]	
20	9.00	7.70	Cc1noc(C)c1S(=O)(=O)Nc1ccc(N2CCN(C(=O)COc3ccc4[nH]cc(CCN)c4c3)CC2)cc1 [Example 10, 3,5-Dimethylisoxazole-4-{N-[4-(4-{2-[3-(2-aminoethyl)-1H-indol-5-yloxy]acetyl}-piperazin-1-yl)phenyl]sulfonamide hydrochloride]	
44	8.62	6.98	CCOC(=O)Nc1ccc(N2CCN(C(=O)COc3ccc4[nH]cc(CCN)c4c3)CC2)cc1 [Example 11, 2-[3-(2-Aminoethyl)-1H-indol-5-yloxy]-1-[4-(4-N-{ethoxycarbonyl}aminophenyl)piperazin-1-yl]-ethanone hydrochloride]	
			CS(=O)(=O)Nc1ccc(N2CCN(C(=O)CCCCCOc3ccc4[nH]cc(CCN)c4c3)CC2)cc1 [Example 59, N-[4-(4-{6-[3-(2-Aminoethyl)-1H-indol-5-yloxy]hexanoyl}piperazin-1-yl)phenyl]methane sulfonamide hydrochloride]	pEC50 (human 5HT1Db receptor [1]): 9.28; pKi (human 5HT1Db receptor [2]): 8.89; pKi (human 5HT1Da receptor): 8.89
			NCCc1c[nH]c2ccc(O)cc12 [serotonin, reference compound]	blocking the formation of cAMP (in words) (5-HT1B receptor; OK kidney epithelial cell line, forskolin-stimulated): capable of effectively blocking the formation of cAMP

Compound	Ratio 1A/1D (ratio of the IC50 values for the 5HT1A and 5HT1D receptors) (5-HT1D receptors)	pIC50 (5-HT1D receptors)	pIC50 (5-HT1A; [3])	further results
NCCc1c[nH]c2ccc(OCC(=O)N3CCN(c4ccccc4[N+](=O)[O-])CC3)cc12 [Example 14, 2-[3-(2-Aminoethyl)-1H-indol-5-yloxy]-1-[4-(2-nitrophenyl)piperazin-1-yl)ethanone hydrochloride]	10	9.00		pIC50 (5-HT1A): 8.02
